Laboratory results as given in patent publication US20060142593A1, “Platinum compounds” (Sonus Pharmaceuticals, Inc., priority 2002, published 2006).

Assays:
NCI-H460 cells [1] = assay: Cytotoxicity assay (sulforhodamine B), NCI-H460; assay type: cell-based
Method: (§1) Methods. NCI-H460, HCT-15, OVCAR-3, CACO-2, MCF-7, HT-29, and HCT-116 cells were inoculated into 96 well microtiter plates in 100 microliters of medium at plating densities ranging from 5000 to 40000 cells/well, as given by NCI tables. After cell inoculation, the microtiter plates were incubated at 37° C., 5% CO2, 95% air, and 100% relative humidity for 24 hours. After 24 hours, 2 control plates of each cell line (time zero controls) were fixed by the addition of 30% trichloroacetic acid (TCA, final TCA concentration is 10% w/v). S-9168 was solubilized in saline. […] Additional 4, 10 fold, or ½ log serial dilutions were made to provide a total of five drug concentrations plus controls. Aliquots of 100 microliters of different drug dilutions were added to the appropriate microtiter wells already containing 100 microliters of medium. Following drug addition, the plates were incubated for an additional 48 hours under the same conditions provided above. The assays were terminated by the addition of cold TCA as described above for the time zero controls. The plates were then incubated at 4° C. for at least 60 minutes to fix the cells to the bottom of the plate. […] After staining, unbound dye was removed by washing five times with 1% acetic acid and the plates were allowed to air dry for 12-24 hours at room temperature. […]

HCT-15 cells [2] = assay: Cytotoxicity assay (sulforhodamine B), HCT-15; assay type: cell-based
Method: as §1

OVCAR-3 cells [3] = assay: Cytotoxicity assay (sulforhodamine B), OVCAR-3; assay type: cell-based; conditions: OVCAR-3, Assay 6, 48 h drug exposure
Method: as §1

rats [4] = assay: Plasma creatinine as measure of renal function (Example 7); assay type: in vivo; conditions: rat plasma, 8 mg/kg cisplatin, 9.9 mg/kg carboplatin, 19.6 mg/kg S-9168
Method: Methods. Three groups of two rats were cannulated in the jugular vein and allowed to recover for approximately 24 hours. […] Blood samples (1.8 ml) were taken via the jugular vein canal before treatment (day 0) and 1, 2, 3, and 4 days after treatment, spun at 8000 rpm. for 2 minutes, and the plasma was removed. Creatinine assays were performed using the Sigma Creatinine Kit (Sigma Diagnostics Co., St. Louis, Mo.; Cat. No. 555-A) according to the Sigma creatinine assay protocol, in which the difference in color intensity at 500 nm of a sample containing creatinine and alkaline picrate solution before and after acidification is measured. The limit of linearity for the UV spectrophotometer was established by using the calibration curve procedure in the Sigma creatinine assay protocol.
(§2) Methods. Four groups of eight rats were cannulated as described in Example 6. […] The fourth group of rats was dosed with saline. Two rats in each group were sacrificed on days 4, 6, and 8 after treatment and 2 ml of blood were withdrawn. The blood sample was spun at 8000 rpm. for 2 minutes and the plasma was removed. Creatinine assays were performed as described in Example 6.

rats [5] = assay: Blood urea nitrogen (BUN) as measure of renal function (Example 8); assay type: in vivo; conditions: rat plasma, 8 mg/kg cisplatin, 9.9 mg/kg carboplatin, 19.6 mg/kg S-9168
Method: as §2, with “removed. BUN” for “removed. Creatinine”, “performed using the Sigma Blood Urea Nitrogen Kit (Sigma Diagnostics Co., St. Louis, Mo.; Cat. No. 535-A).” for “performed as described in Example 6.”

NCI-H460 cells [6] = conditions: NCI-H460, previously determined NCI values; cited from earlier work
HCT-15 cells [7] = conditions: HCT-15, previously determined NCI values; cited from earlier work
OVCAR-3 cells [8] = conditions: OVCAR-3, previously determined NCI value; cited from earlier work
MCF-7 cells [9] = conditions: MCF-7, previously determined NCI values; cited from earlier work
HT-29 cells [10] = conditions: HT-29, previously determined NCI values; cited from earlier work
HCT-116 cells [11] = conditions: HCT-116, previously determined NCI values; cited from earlier work
MCF-7 cells [12] = assay: Cytotoxicity assay (sulforhodamine B), MCF-7; assay type: cell-based
Method: as §1

HT-29 cells [13] = assay: Cytotoxicity assay (sulforhodamine B), HT-29; assay type: cell-based; conditions: HT-29, Assay 8, 48 h drug exposure
Method: as §1

HCT-116 cells [14] = assay: Cytotoxicity assay (sulforhodamine B), HCT-116; assay type: cell-based; conditions: HCT-116, Assay 9, 48 h drug exposure
Method: as §1

## N.N.O=C([O-])C1(C(=O)[O-])CCC1.[Pt+2] [Carboplatin, cis-diamine[1,1-cyclobutnaedicarboxylate(2-)-O,O′-platinum(II)]
NCI-H460 cells [1]; NCI-H460, Assay 2, 48 h drug exposure
  GI50 (log): (−4.96) Pt mg/ml (log)
HCT-15 cells [2]; HCT-15, Assay 2, 48 h drug exposure
  GI50 (log): (−4.31) Pt mg/ml (log)
OVCAR-3 cells [3]
  GI50 (log): (−4.82) Pt mg/ml (log)
Rats [4]; day 4
  average creatinine level: 0.6659 mg/dL
Rats [4]; day 6
  average creatinine level: 0.7039 mg/dL
Rats [4]; day 8
  average creatinine level: 0.5402 mg/dL
Rats [5]; day 4
  average BUN level: 28.92 mg/dL
Rats [5]; day 6
  average BUN level: 21.59 mg/dL
Rats [5]; day 8
  average BUN level: 25.52 mg/dL
NCI-H460 cells [6]
  GI50 (log), NCI values: (−5.21) Pt mg/ml (log)
HCT-15 cells [7]
  GI50 (log), NCI values: (−4.31) Pt mg/ml (log)
OVCAR-3 cells [8]
  GI50 (log), NCI value: (−4.91) Pt mg/ml (log)
MCF-7 cells [9]
  GI50 (log), NCI values: (−4.61) Pt mg/ml (log)
HT-29 cells [10]
  GI50 (log), NCI values: (−4.41) Pt mg/ml (log)
HCT-116 cells [11]
  GI50 (log), NCI values: (−4.51) Pt mg/ml (log)

## N.N.[Cl][Pt][Cl] [Cisplatin, cis-diaminedichloroplatinum(II)]
NCI-H460 cells [1]; NCI-H460, Assay 1, 48 h drug exposure
  GI50 (log): (−6.98) Pt mg/ml (log)
HCT-15 cells [2]; HCT-15, Assay 5, 48 h drug exposure
  GI50 (log): (−6.65) Pt mg/ml (log)
MCF-7 cells [12]; MCF-7, Assay 2, 48 h drug exposure
  GI50 (log): (−5.10) Pt mg/ml (log)
MCF-7 cells [12]; MCF-7, Assay 7, 48 h drug exposure
  GI50 (log): (−6.14) Pt mg/ml (log)
HT-29 cells [13]
  GI50 (log): (−5.99) Pt mg/ml (log)
HCT-116 cells [14]
  GI50 (log): (−6.13) Pt mg/ml (log)
NCI-H460 cells [6]
  GI50 (log), NCI values: (−6.92) Pt mg/ml (log)
HCT-15 cells [7]
  GI50 (log), NCI values: (−5.82) Pt mg/ml (log)
OVCAR-3 cells [8]
  GI50 (log), NCI value: (−6.32) Pt mg/ml (log)
MCF-7 cells [9]
  GI50 (log), NCI values: (−6.22) Pt mg/ml (log)
HT-29 cells [10]
  GI50 (log), NCI values: (−5.82) Pt mg/ml (log)
HCT-116 cells [11]
  GI50 (log), NCI values: (−6.12) Pt mg/ml (log)
